Source: patent US7132437B2, “Renal-selective biphenylalkyl 1H-substituted-1,2,4-triazole angiotensin II antagonists for treatment of hypertension” (G.D. Searle, priority 1990, dated 2006)
pIC50: −log10 of the molar value.

Assays:
[1] = biological target: T1, smooth muscle angiotensin II receptor; experiment: Assay A: Angiotensin II Binding Activity; settings: rat uterine membrane preparation, displacement of 125I-AII
T1 construct: Rat uterine membranes were prepared from fresh tissue
Experimental: Assay A: Angiotensin II Binding Activity
Compounds of Formula I were tested for ability to bind to the smooth muscle angiotensin II receptor using a rat uterine membrane preparation. […] Other chemicals were obtained from Sigma Chemical Co. This assay was carried out according to the method of Douglas et al [Endocrinology, 106, 120–124 (1980)]. Rat uterine membranes were prepared from fresh tissue. All procedures were carried out at 4° C. Uteri were stripped of fat and homogenized in phosphate-buffered saline at pH 7.4 containing 5 mM EDTA. The homogenate was centrifuged at 1500×g for 20 min., and the supernatant was recentrifuged at 100,000×g for 60 min. The pellet was resuspended in buffer consisting of 2 mM EDTA and 50 mM Tris-HCl (pH 7.5) to a final protein concentration of 4 mg/ml. […] The reaction was initiated by the addition of membrane protein and the mixture was incubated at 25° C. for 60 min. The incubation was terminated with ice-cold 50 mM Tris-HCl (pH 7.5) and the mixture was filtered to separate membrane-bound labelled peptide from the free ligand. The incubation tube and filter were washed with ice-cold buffer. Filters were assayed for radioactivity in a Micromedic gamma counter. Nonspecific binding was defined as binding in the presence of 10 μM of unlabelled AII. Specific binding was calculated as total binding minus nonspecific binding. […] Binding data were analyzed by a nonlinear least-squares curve fitting program.

rabbit aortic rings = experiment: Assay B: In Vitro Vascular Smooth Muscle Response for AII; assay type: cell-based; settings: for Assay B pA2 / Kb: antagonist at 10^-5 M, two values per cell = aorta rings from two rabbits; for Kb: Oryctolagus cuniculus, read-out: Assay B pA2 (converted)
Experimental: Assay B: In Vitro Vascular Smooth Muscle-Response for ATT
Compounds of Formula I were tested for antagonist activity in rabbit aortic rings. Male New Zealand white rabbits (2–2.5 kg) were sacrificed using an overdose of pentobarbital and exsanguinated via the carotid arteries. The thoracic aorta was removed, cleaned of adherent fat and connective tissue and then cut into 3-mm ring segments. The endothelium was removed from the rings by gently sliding a rolled-up piece of filter paper into the vessel lumen. The rings were then mounted in a water-jacketed tissue bath, maintained at 37° C., between moveable and fixed ends of a stainless steel wire with the moveable end attached to an FT03 Grass transducer coupled to a Model 7D Grass Polygraph for recording isometric force responses. The bath was filled with 20 ml of oxygenated (95% oxygen/5% carbon dioxide) Krebs solution of the following composition […]: 130 NaCl, 15 NaHCO3, 15 KCl, 1.2 NaH2PO4, 1.2 MgSO4, 2.5 CaCl2, and 11.4 glucose. The preparations were equilibrated for one hour before approximately one gram of passive tension was placed on the rings. Angiotensin II concentration-response curves were then recorded (3×10^−10 to 1×10–5 M). Each concentration of AII was allowed to elicit its maximal contraction, and then AII was washed out repeatedly for 30 minutes before rechallenging with a higher concentration of AII. Aorta rings were exposed to the test antagonist at 10^−5 M for 5 minutes before challenging with AII. Adjacent segments of the same aorta ring were used for all concentration-response curves in the presence or absence of the test antagonist. The effectiveness of the test compound was expressed in terms of pA2 values and were calculated according to H. O. Schild [Br. J. Pharmacol. Chemother., 2, 189–206 (1947)]. […] Each test antagonist was evaluated in aorta rings from two rabbits.

| Molecule | pIC50 [1] | Assay B pA2 (rabbit aortic rings) | further results |
| --- | --- | --- | --- |
| CCCCc1ncnn1Cc1ccc(-c2ccccc2C(=O)O)cc1 (single isomer, unassigned) [Example 18, 4′-[(5-butyl-1H-1,2,4-triazol-1-yl)methyl][1,1′-biphenyl]-2-carboxylic acid] | 6.01 | 6.09 | – |
| CCCCc1nc(C(F)(F)CCC)n(Cc2ccc(-c3ccccc3C(=O)O)cc2)n1 [Example 11, 4′-[[3-butyl-5-(1,1-difluorobutyl)-1H-1,2,4-triazol-1-yl]methyl][1,1′-biphenyl]-2-carboxylic acid] | 6.80 | – | – |
| CCCCc1nc(CCCC)n(Cc2ccc(-c3ccccc3C(=O)O)cc2)n1 [Example 2, 4′-[(3,5-dibutyl-1H-1,2,4-triazol-1-yl)methyl][1,1′-biphenyl]-2-carboxylic acid] | – | – | Kb (rabbit aortic rings): 42.7 nM |
| CCCCc1nc(C=O)nn1Cc1ccc(-c2ccccc2-c2nnn[nH]2)cc1 [Example 49, 5-butyl-1-[2′-(1H-tetrazol-5-yl)[1,1′-biphenyl]-4-ylmethyl]-1H-1,2,4-triazole-3-carboxaldehyde] | – | 7.07 | – |
| CCCCc1nc(CCC)nn1Cc1ccc(-c2ccccc2C(=O)O)cc1 [Example 14, 4′-[(5-butyl-3-propyl-1H-1,2,4-triazol-1-yl)methyl]-[1,1′-biphenyl]-2-carboxylic acid] | – | – | Kb (rabbit aortic rings): 1.45 nM |
| CCCCc1nc(CCCN)n(Cc2ccc(-c3ccccc3-c3nnn[nH]3)cc2)n1 [Example 71, 5-[4-[[3-butyl-5-(3-aminopropyl)-1H-1,2,4-triazol-1-yl]methyl][1,1′-biphenyl]-2-yl]-1H-tetrazole] | – | – | Assay B antagonist activity (symbol in pA2 column) (rabbit aortic rings): * (Antagonist activity not observed up to 10 μM of test compound.) |
| CCCCc1ncn(Cc2ccc(-c3ccccc3C(=O)O)cc2)n1 (single isomer, unassigned) [Example 19, 4′-[(3-butyl-1H-1,2,4-triazol-1-yl)methyl][1,1′-biphenyl]-2-carboxylic acid] | 4.92 | 5.35 | – |
| CCCCc1nc(Cl)n(Cc2ccc(-c3ccccc3C(=O)O)cc2)n1 (single isomer, unassigned) [Example 8, 4′-[(3-butyl-5-chloro-1H-1,2,4-triazol-1-yl)methyl][1,1′-biphenyl]-2-carboxylic acid] | 4.77 | – | – |
| CCCCc1nc(CCC)n(Cc2ccc(-c3ccccc3C(=O)O)cc2)n1 [Example 15, 4′-[(3-butyl-5-propyl-1H-1,2,4-triazol-1-yl)methyl]-[1,1′-biphenyl]-2-carboxylic acid] | 7.80 | – | Kb (rabbit aortic rings): 4.9 nM |
| 1,1-dimethylethyl [3-butyl-[1-2′-(1H-tetrazol-5-yl)[1,1′-biphenyl]-4-ylmethyl]-1H-1,2,4-triazol-5-yl]methylcarbamate [Example 34] | 6.19 | – | – |
| CCCCc1nc(CCC(C)C)n(Cc2ccc(-c3ccccc3C(=O)O)cc2)n1 [Example 16] | – | – | Kb (rabbit aortic rings): 1.12 nM |
| CCCCCc1nc(CN)nn1Cc1ccc(-c2ccccc2-c2nnn[nH]2)cc1 [Example 13, 5-[4′-[(3-aminomethyl-5-pentyl-1H-1,2,4-triazol-1-yl)methyl][1,1′-biphenyl]-2-yl]-1H-tetrazole] | – | – | Kb (rabbit aortic rings): 2 nM |
| CCCCc1nc(C(F)(F)C(F)(F)C(F)(F)F)nn1Cc1ccc(-c2ccccc2-c2nnn[nH]2)cc1 [Example 70, 5-[4′-[[3-(1,1,2,2,3,3,3-heptafluoropropyl)-5-butyl-1H-1,2,4-triazol-1-yl]methyl][1,1′-biphenyl]-2-yl]-1H-tetrazole] | 7.36 | – | – |
| CCCc1nc(CN)nn1Cc1ccc(-c2ccccc2-c2nnn[nH]2)cc1 [Example 12, 5-[4′-[(3-aminomethyl-5-propyl-1H-1,2,4-triazol-1-yl)methyl][1,1′-biphenyl]-2-yl]-1H-tetrazole] | 8.22 | – | Kb (rabbit aortic rings): 2.19 nM |
| CCCCc1nc(CCC(C)C)nn1Cc1ccc(-c2ccccc2C(=O)O)cc1 [Example 17, 4′-[(5-butyl-3-isopentyl-1H-1,2,4-triazol-1-yl]methyl)-[1,1′-biphenyl]-2-carboxylic acid] | 8.40 | – | Kb (rabbit aortic rings): 2.29 nM |

Now from value to molecule, other results behind:

| pIC50 [1] | Molecule | Assay B pA2 (rabbit aortic rings) | further results |
| --- | --- | --- | --- |
| 7.85 | CCCCc1nc(CNC(C)=O)nn1Cc1ccc(-c2ccccc2-c2nnn[nH]2)cc1 [Example 31, N-[[5-butyl-1-[2′-(1H-tetrazol-5-yl)[1,1′-biphenyl]-4-ylmethyl]-1H-1,2,4-triazol-3-yl]methyl]acetamide] | – | – |
| 6.20 | CCCCc1nc(C)n(Cc2ccc(-c3ccccc3-c3nnn[nH]3)cc2)n1 (single isomer, unassigned) [Example 33, 5-[4′-[(3-butyl-5-methyl-1H-1,2,4-triazol-1-yl)methyl][1,1′-biphenyl]-2-yl]-1H-tetrazole] | – | – |
| 6.17 | CCCCc1nc(C(F)F)n(Cc2ccc(-c3ccccc3-c3nnn[nH]3)cc2)n1 (single isomer, unassigned) [Example 48, 5-[4′-[[3-butyl-5-(difluoromethyl)-1H-1,2,4-triazol-1-yl]methyl][1,1′-biphenyl]-2-yl]-1H-tetrazole] | – | – |
| 8.00 | CCCCc1nc(CC(OCC)OCC)nn1Cc1ccc(-c2ccccc2-c2nnn[nH]2)cc1 (single isomer, unassigned) [Example 38, 5-[4′-[[5-butyl-3-(2,2-diethyoxyethyl)-1H-1,2,4-triazol-1-yl]methyl][1,1′-biphenyl]-2-yl]-1H-tetrazole] | – | – |
| 8.00 | CCCCc1nc(CC)nn1Cc1ccc(-c2ccccc2-c2nnn[nH]2)cc1 (single isomer, unassigned) [Example 39, 5-[4′-[(5-butyl-3-ethyl-1H-1,2,4-triazol-1-yl)methyl][1,1′-biphenyl]-2-yl]-1H-tetrazole] | 7.84 | – |
| 7.72 | CCCCc1nc(CCC2CCCCC2)nn1Cc1ccc(-c2ccccc2-c2nnn[nH]2)cc1 (single isomer, unassigned) [Example 43, 5-[4′-[[5-butyl-3-(2-cyclohexylethyl)-1H-1,2,4-triazol-1-yl]methyl][1,1′-biphenyl]-2-yl]-1H-tetrazole] | – | – |
| 6.43 | CCCCc1nc(CCC2CCCCC2)n(Cc2ccc(-c3ccccc3-c3nnn[nH]3)cc2)n1 (single isomer, unassigned) [Example 42, 5-[4′-[[3-butyl-5-(2-cyclohexylethyl)-1H-1,2,4-triazol-1-yl]methyl][1,1′-biphenyl]-2-yl]-1H-tetrazole] | 6.26 | – |
| 7.08 | CCCCc1nc(CC)n(Cc2ccc(-c3ccccc3-c3nnn[nH]3)cc2)n1 (single isomer, unassigned) [Example 40, 5-[4′-[(3-butyl-5-ethyl-1H-1,2,4-triazol-1-yl)methyl][1,1′-biphenyl]-2-yl]-1H-tetrazole] | – | – |
| 6.80 | CCCCCCCCc1nc(CCCC)n(Cc2ccc(-c3ccccc3-c3nnn[nH]3)cc2)n1 (single isomer, unassigned) [Example 29, 5-[4′-[(5-butyl-3-octyl-1H-1,2,4-triazol-1-yl)methyl][1,1′-biphenyl]-2-yl]-1H-tetrazole] | – | – |
| 6.47 | CCCCc1nc(CC(OCC)OCC)n(Cc2ccc(-c3ccccc3-c3nnn[nH]3)cc2)n1 (single isomer, unassigned) [Example 37, 5-[4′-[[3-butyl-5-(2,2-diethyoxyethyl)-1H-1,2,4-triazol-1-yl]methyl][1,1′-biphenyl]-2-yl]-1H-tetrazole] | 6.85 | – |
| 7.68 | CCCCc1nc(C(F)F)nn1Cc1ccc(-c2ccccc2-c2nnn[nH]2)cc1 (single isomer, unassigned) [Example 47, 5-[4′-[[5-butyl-3-(difluoromethyl)-1H-1,2,4-triazol-1-yl]methyl][1,1′-biphenyl]-2-yl]-1H-tetrazole] | 7.58 | – |
| 6.32 | CCCCc1nc(CCc2ccccc2)n(Cc2ccc(-c3ccccc3-c3nnn[nH]3)cc2)n1 (single isomer, unassigned) [Example 25] | 6.73 | – |
| 8.00 | CCCCc1nc(C(OC)OC)nn1Cc1ccc(-c2ccccc2-c2nnn[nH]2)cc1 (single isomer, unassigned) [Example 24] | 7.73 | – |
